Reference: patent publication US20120264735A1 (priority 2009, published 2012)

These molecules were tested against T1, c-Met kinase (recombinant c-Met) (Homo sapiens, UniProt P08581) (assay: In vitro kinase assay I (homogeneous time-resolved fluorescence tyrosine kinase assay)).
T1 construct: 0.27 nM recombinant c-Met
Type: biochemical
In short: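 Biotinylated peptide (0.5 μM) phosphorylated by 0.2 nM recombinant c-Met with 50 μM MgATP, 60 min at room temperature, pH 7.4, 5% DMSO. EDTA stop; HTRF read with Eu-anti-phosphotyrosine antibody and streptavidin-APC. IC50 from 4-parameter logistic fit.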

T1 sequence (P08581 25-1390): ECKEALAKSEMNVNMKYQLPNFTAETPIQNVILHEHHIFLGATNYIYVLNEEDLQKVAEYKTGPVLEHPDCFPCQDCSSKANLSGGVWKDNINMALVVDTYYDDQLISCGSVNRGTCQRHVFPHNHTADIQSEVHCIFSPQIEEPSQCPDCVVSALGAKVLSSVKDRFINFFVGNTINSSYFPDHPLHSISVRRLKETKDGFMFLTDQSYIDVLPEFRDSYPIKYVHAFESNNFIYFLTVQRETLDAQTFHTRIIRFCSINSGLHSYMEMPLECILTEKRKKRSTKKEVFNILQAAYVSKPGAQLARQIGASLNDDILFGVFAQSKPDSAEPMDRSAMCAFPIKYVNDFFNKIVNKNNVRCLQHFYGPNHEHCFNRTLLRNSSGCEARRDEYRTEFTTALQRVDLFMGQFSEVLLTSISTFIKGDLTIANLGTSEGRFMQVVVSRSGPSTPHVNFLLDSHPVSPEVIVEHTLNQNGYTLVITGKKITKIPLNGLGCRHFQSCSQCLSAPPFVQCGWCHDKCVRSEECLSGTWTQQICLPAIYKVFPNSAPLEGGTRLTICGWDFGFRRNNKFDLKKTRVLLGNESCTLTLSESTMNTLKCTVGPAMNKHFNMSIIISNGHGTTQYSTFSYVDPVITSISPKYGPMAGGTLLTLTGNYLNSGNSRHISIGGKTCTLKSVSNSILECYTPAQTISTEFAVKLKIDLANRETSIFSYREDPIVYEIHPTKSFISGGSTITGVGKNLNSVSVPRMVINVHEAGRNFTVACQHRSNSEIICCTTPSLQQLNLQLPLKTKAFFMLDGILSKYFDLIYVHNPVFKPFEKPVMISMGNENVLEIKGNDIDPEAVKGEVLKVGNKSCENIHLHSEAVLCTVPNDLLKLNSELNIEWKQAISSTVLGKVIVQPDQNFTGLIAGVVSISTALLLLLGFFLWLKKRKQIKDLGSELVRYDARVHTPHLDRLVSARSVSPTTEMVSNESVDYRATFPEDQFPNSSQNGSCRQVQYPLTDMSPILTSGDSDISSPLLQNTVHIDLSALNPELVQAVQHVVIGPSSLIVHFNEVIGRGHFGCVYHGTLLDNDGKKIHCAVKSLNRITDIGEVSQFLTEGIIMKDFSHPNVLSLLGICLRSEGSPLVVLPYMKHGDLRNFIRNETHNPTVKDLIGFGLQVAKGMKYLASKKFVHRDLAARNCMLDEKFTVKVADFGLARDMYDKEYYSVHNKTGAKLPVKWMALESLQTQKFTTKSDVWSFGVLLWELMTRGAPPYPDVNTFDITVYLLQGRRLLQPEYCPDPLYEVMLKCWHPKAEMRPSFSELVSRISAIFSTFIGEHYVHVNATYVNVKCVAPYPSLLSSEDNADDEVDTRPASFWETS

First: COc1ccnc2ccc(Cc3nn(-c4cnn(C)c4)ccc3=O)cc12 [Example 142, 3-[(4-methoxyquinolin-6-yl)methyl]-1-(1-methyl-1H-pyrazol-4-yl)pyridazin-4(1H)-one]
Second: COCc1cnc(-c2cccc(Cc3nn(-c4cnn(C)c4)ccc3=O)c2)nc1 [Example 161, 3-{3-[5-(methoxymethyl)pyrimidin-2-yl]benzyl}-1-(1-methyl-1H-pyrazol-4-yl)pyridazin-4(1H)-one]
The IC50 of the first is higher: 100 to 1000 nM for the first, < 100 nM for the second. The second is the more potent here.

`CCOc1cnc(-c2cccc(Cc3nn(-c4cccc(Br)c4)ccc3=O)c2)nc1` [Example 143, 1-(3-bromophenyl)-3-[3-(5-ethoxypyrimidin-2-yl)benzyl]pyridazin-4(1H)-one] and `CCOc1cnc(-c2cccc(Cc3nn(-c4ccc(Br)c(F)c4)ccc3=O)c2)nc1` [Example 145, 1-(4-Bromo-3-fluorophenyl)-3-[3-(5-ethoxypyrimidin-2-yl)benzyl]pyridazin-4(1H)-one] cannot be ordered by IC50: < 100 nM for the first, < 100 nM for the second.

`COCCOc1cnc(-c2cccc(Cc3nn(-c4ccc(C#N)c(F)c4)ccc3=O)c2)nc1` [Example 144, 2-fluoro-4-[3-{3-[5-(2-methoxyethoxy)pyrimidin-2-yl]benzyl}-4-oxopyridazin-1(4H)-yl]benzonitrile] and `CCOc1cnc(-c2cccc(Cc3nn(-c4ccc(C#N)c(F)c4)ccc3=O)c2)nc1` [Example 148, 4-{3-[3-(5-ethoxypyrimidin-2-yl)benzyl]-4-oxopyridazin-1(4H)-yl}-2-fluorobenzonitrile] cannot be ordered by IC50: < 100 nM for the first, < 100 nM for the second.

`CCOc1cnc(-c2cccc(Cc3nn(-c4cc(F)cc(F)c4)ccc3=O)c2)nc1` [Example 146, 1-(3,5-difluorophenyl)-3-[3-(5-ethoxypyrimidin-2-yl)benzyl]pyridazin-4(1H)-one] and `COCCOc1cnc(-c2cccc(Cc3nn(-c4cc(F)cc(F)c4)ccc3=O)c2)nc1` [Example 149, 1-(3,5-difluorophenyl)-3-{3-[5-(2-methoxyethoxy)pyrimidin-2-yl]benzyl}pyridazin-4(1H)-one] cannot be ordered by IC50: < 100 nM for the first, < 100 nM for the second.

`CCOc1cnc(-c2cccc(Cc3nn(-c4cc(F)c(Br)c(F)c4)ccc3=O)c2)nc1` [Example 147, 1-(4-bromo-3,5-difluorophenyl)-3-[3-(5-ethoxypyrimidin-2-yl)benzyl]pyridazin-4(1H)-one] and `CCOc1cnc(-c2cccc(Cc3nn(-c4ccc(Cl)c(F)c4)ccc3=O)c2)nc1` [Example 152, 1-(4-chloro-3-fluorophenyl)-3-[3-(5-ethoxypyrimidin-2-yl)benzyl]pyridazin-4(1H)-one] cannot be ordered by IC50: < 100 nM for the first, < 100 nM for the second.

`CCOc1cnc(-c2cccc(Cc3nn(-c4cnn(CC)c4)ccc3=O)c2)nc1` [Example 150, 3-[3-(5-ethoxypyrimidin-2-yl)benzyl]-1-(1-ethyl-1H-pyrazol-4-yl)pyridazin-4(1H)-one] and `CCn1cc(-n2ccc(=O)c(Cc3cccc(-c4ncc(OCCOC)cn4)c3)n2)cn1` [Example 151, 1-(1-ethyl-1H-pyrazol-4-yl)-3-{3-[5-(2-methoxyethoxy)pyrimidin-2-yl]benzyl}pyridazin-4(1H)-one] cannot be ordered by IC50: < 100 nM for the first, < 100 nM for the second.

`COCCOc1cnc(-c2cccc(Cc3nn(-c4ccc(Cl)c(F)c4)ccc3=O)c2)nc1` [Example 153, 1-(4-chloro-3-fluorophenyl)-3-{3-[5-(2-methoxyethoxy)pyrimidin-2-yl]benzyl}pyridazin-4(1H)-one] and `Cn1cc(-c2cnc(-c3cccc(Cc4nn(-c5ccc(F)c(F)c5)ccc4=O)c3)nc2)cn1` [Example 156, 1-(3,4-difluorophenyl)-3-{3-[5-(1-methyl-1H-pyrazol-4-yl)pyrimidin-2-yl]benzyl}pyridazin-4(1H)-one] cannot be ordered by IC50: < 100 nM for the first, < 100 nM for the second.

`Cn1cc(-c2cnc(-c3cccc(Cc4nn(-c5cnn(C)c5)ccc4=O)c3)nc2)cn1` [Example 154, 1-(1-methyl-1H-pyrazol-4-yl)-3-{3-[5-(1-methyl-1H-pyrazol-4-yl)pyrimidin-2-yl]benzyl}pyridazin-4(1H)-one] and `CCn1cc(-n2ccc(=O)c(Cc3cccc(-c4ncc(-c5cnn(C)c5)cn4)c3)n2)cn1` [Example 157, 1-(1-ethyl-1H-pyrazol-4-yl)-3-{3-[5-(1-methyl-1H-pyrazol-4-yl)pyrimidin-2-yl]benzyl}pyridazin-4(1H)-one] cannot be ordered by IC50: < 100 nM for the first, < 100 nM for the second.

`Cn1cc(-c2cnc(-c3cccc(Cc4nn(-c5cc(F)cc(C#N)c5)ccc4=O)c3)nc2)cn1` [Example 155, 3-fluoro-5-[3-{3-[5-(1-methyl-1H-pyrazol-4-yl)pyrimidin-2-yl]benzyl}-4-oxopyridazin-1(4H)-yl]benzonitrile] and `Cn1cc(-c2cnc(-c3cccc(Cc4nn(-c5cc(Cl)cc(C#N)c5)ccc4=O)c3)nc2)cn1` [Example 158, 3-chloro-5-[3-{3-[5-(1-methyl-1H-pyrazol-4-yl)pyrimidin-2-yl]benzyl}-4-oxopyridazin-1(4H)-yl]benzonitrile] cannot be ordered by IC50: < 100 nM for the first, < 100 nM for the second.

First: Cn1cc(-n2ccc(=O)c(Cc3cccc(-c4ncc(NC(=O)OC(C)(C)C)cn4)c3)n2)cn1 [Example 159, tert-butyl [2-(3-{[1-(1-methyl-1H-pyrazol-4-yl)-4-oxo-1,4-dihydropyridazin-3-yl]methyl}phenyl)pyrimidin-5-yl]carbamate]
Second: COC(C)(C)c1cnc(-c2cccc(Cc3nn(-c4cnn(C)c4)ccc3=O)c2)nc1 [Example 168, 3-{3-[5-(1-methoxy-1-methylethyl)pyrimidin-2-yl]benzyl}-1-(1-methyl-1H-pyrazol-4-yl)pyridazin-4(1H)-one]
The IC50 of the first is lower: < 100 nM for the first, 100 to 1000 nM for the second.

First: CCOc1cnc2ccc(Cc3nn(-c4cnn(CC)c4)ccc3=O)cc2c1 [Example 160, 3-[(3-ethoxyquinolin-6-yl)methyl]-1-(1-ethyl-1H-pyrazol-4-yl)pyridazin-4(1H)-one]
Second: CCn1cc(-n2ccc(=O)c(Cc3cccc(-c4ncc(COC)cn4)c3)n2)cn1 [Example 163, 1-(1-ethyl-1H-pyrazol-4-yl)-3-{3-[5-(methoxymethyl)pyrimidin-2-yl]benzyl}pyridazin-4(1H)-one]
The IC50 of the first is higher: 100 to 1000 nM for the first, < 100 nM for the second.

First: CCOCc1cnc(-c2cccc(Cc3nn(-c4cnn(C)c4)ccc3=O)c2)nc1 [Example 162, 3-{3-[5-(ethoxymethyl)pyrimidin-2-yl]benzyl}-1-(1-methyl-1H-pyrazol-4-yl)pyridazin-4(1H)-one]
Second: CCOC(C)(C)c1cnc(-c2cccc(Cc3nn(-c4cnn(C)c4)ccc3=O)c2)nc1 [Example 169, 3-{3-[5-(1-ethoxy-1-methylethyl)pyrimidin-2-yl]benzyl}-1-(1-methyl-1H-pyrazol-4-yl)pyridazin-4(1H)-one]
The IC50 of the first is lower: < 100 nM for the first, 100 to 1000 nM for the second. The first is the more potent here.

`Cn1cc(-n2ccc(=O)c(Cc3cccc(-c4ncc(OC5COC5)cn4)c3)n2)cn1` [Example 164, 1-(1-methyl-1H-pyrazol-4-yl)-3-{3-[5-(oxetan-3-yloxy)pyrimidin-2-yl]benzyl}pyridazin-4(1H)-one] and `CCn1cc(-n2ccc(=O)c(Cc3cccc(-c4ncc(OC5COC5)cn4)c3)n2)cn1` [Example 165, 1-(1-ethyl-1H-pyrazol-4-yl)-3-{3-[5-(oxetan-3-yloxy)pyrimidin-2-yl]benzyl}pyridazin-4(1H)-one] cannot be ordered by IC50: < 100 nM for the first, < 100 nM for the second.

`Cn1cc(-n2ccc(=O)c(Cc3cccc(-c4ncc(C(C)(C)O)cn4)c3)n2)cn1` [Example 167, 3-{3-[5-(1-hydroxy-1-methylethyl)pyrimidin-2-yl]benzyl}-1-(1-methyl-1H-pyrazol-4-yl)pyridazin-4(1H)-one] and `CCOc1cnc(-c2cccc(Cc3nn(-c4cnn(C)c4)ccc3=O)c2)nc1C` [Example 177, 3-[3-(5-ethoxy-4-methylpyrimidin-2-yl)benzyl]-1-(1-methyl-1H-pyrazol-4-yl)pyridazin-4(1H)-one] cannot be ordered by IC50: < 100 nM for the first, < 100 nM for the second.

`CN1CCC(COc2cnc(-c3cccc(Cc4nn(-c5cc(F)cc(C#N)c5)ccc4=O)c3)nc2)CC1` [Example 170, 3-fluoro-5-[3-(3-{5-[(1-methylpiperidin-4-yl)methoxy]pyrimidin-2-yl}benzyl)-4-oxopyridazin-1(4H)-yl]benzonitrile] and `CN1CCC(COc2cnc(-c3cccc(Cc4nn(-c5cc(F)cc(F)c5)ccc4=O)c3)nc2)CC1` [Example 173, 1-(3,5-difluorophenyl)-3-(3-{5-[(1-methylpiperidin-4-yl)methoxy]pyrimidin-2-yl}benzyl)pyridazin-4(1H)-one] cannot be ordered by IC50: < 100 nM for the first, < 100 nM for the second.

`CN1CCC(COc2cnc(-c3cccc(Cc4nn(-c5cccc(C#N)c5)ccc4=O)c3)nc2)CC1` [Example 171, 3-[3-(3-{5-[(1-methylpiperidin-4-yl)methoxy]pyrimidin-2-yl}benzyl)-4-oxopyridazin-1(4H)-yl]benzonitrile] and `CCn1cc(-n2ccc(=O)c(Cc3cccc(-c4ncc(OCC5CCN(C)CC5)cn4)c3)n2)cn1` [Example 172, 1-(1-ethyl-1H-pyrazol-4-yl)-3-(3-{5-[(1-methylpiperidin-4-yl)methoxy]pyrimidin-2-yl}benzyl)pyridazin-4(1H)-one] cannot be ordered by IC50: < 100 nM for the first, < 100 nM for the second.

`Cn1cc(-n2ccc(=O)c(Cc3cccc(-c4ncc(C5=CCOC5)cn4)c3)n2)cn1` [Example 175, 3-{3-[5-(2,5-dihydrofuran-3-yl)pyrimidin-2-yl]benzyl}-1-(1-methyl-1H-pyrazol-4-yl)pyridazin-4(1H)-one] and `CCOc1cnc(-c2cccc(Cc3nn(-c4cnn(C)c4)ccc3=O)c2)nc1CC` [Example 178, 3-[3-(5-ethoxy-4-ethylpyrimidin-2-yl)benzyl]-1-(1-methyl-1H-pyrazol-4-yl)pyridazin-4(1H)-one] cannot be ordered by IC50: < 100 nM for the first, < 100 nM for the second.

`CCCCc1nc(-c2cccc(Cc3nn(-c4cnn(C)c4)ccc3=O)c2)ncc1OCC` [Example 176, 3-[3-(4-butyl-5-ethoxypyrimidin-2-yl)benzyl]-1-(1-methyl-1H-pyrazol-4-yl)pyridazin-4(1H)-one] and `COC(=O)CCCn1cc(-n2ccc(=O)c(Cc3cccc(NC(=O)OCC(C)C)c3)n2)cn1` [Example 179, methyl 4-{4-[3-(3-{[(2-methylpropoxy)carbonyl]amino}benzyl)-4-oxopyridazin-1(4H)-yl]-1H-pyrazol-1-yl}butanoate] cannot be ordered by IC50: < 100 nM for the first, < 100 nM for the second.
